Measured values: patent US20040010001A1, “Methods and compositions for modulating cell proliferation and cell death” (priority 1999, published 2004)
Read-outs that look alike come from different tables or passages of the source.

Legend:
Type in all cases: cell-based
[1] = test system: rat primary tumors, histocultures; assay: Drug effect in histocultures of rat primary tumors (inhibition of 3H-thymidine incorporation)
[2] = test system: rat lymph node metastasis cells, monolayers; assay: Drug effect in monolayers of rat lymph node metastasis cells (inhibition of bromodeoxyuridine incorporation); conditions: 96 h, read-out: Concentration producing 50% inhibition
[3] = test system: Human breast BC19 (subline of MCF7 transfected with mdr1); assay: FGF-induced resistance, inhibition of BrdU incorporation; conditions: read-out: Drug concentration needed to produce 50% inhibition
Procedure, shortened: (§1)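 Monolayers were pretreated for 96 h with human recombinant aFGF and/or bFGF in medium with 1% FBS (protein adjusted to 2 mg/ml, renewed every other day) and then drug-treated for 96 h. Antiproliferative effect was read as inhibition of BrdU incorporation.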

Human breast MCF7 = assay: as above; conditions: read-out: Drug concentration needed to produce 50% inhibition
Procedure, shortened: as §1

Human colon HT-29 = assay: as above; conditions: read-out: Drug concentration needed to produce 50% inhibition
Procedure, shortened: as §1

Human lung A459 = assay: as above; conditions: read-out: Drug concentration needed to produce 50% inhibition
Procedure, shortened: as §1

Human pharynx FaDu = assay: as above; conditions: read-out: Drug concentration needed to produce 50% inhibition
Procedure, shortened: as §1

Human prostate PC3 = assay: as above; conditions: Homo sapiens, read-out: Drug concentration needed to produce 50% inhibition
Procedure, shortened: as §1

Rat prostate MAT-LyLu = assay: as above; conditions: read-out: Drug concentration needed to produce 50% inhibition
Procedure, shortened: as §1

[4] = test system: Human prostate PC3 tumor cells; assay: Drug treatment and extracellular bFGF (ELISA), LDH release, cell number; conditions: for Extracellular bFGF, % of control / Extracellular concentration bFGF / Extracellular LDH, % of control: 72 hours
[5] = 96 h, r-aFGF + r-bFGF 0.04 ± 1 ng/ml
[6] = 96 h, r-aFGF + r-bFGF 0.08 ± 1 ng/ml
[7] = 96 h, r-aFGF + r-bFGF 0.64 ± 1 ng/ml
[8] = 96 h, r-aFGF + r-bFGF 1 ± 1 ng/ml

In the case of `CC(=O)O[C@H]1C(=O)[C@@]2(C)[C@H]([C@H](OC(=O)c3ccccc3)[C@]3(O)C[C@H](OC(=O)[C@H](O)[C@@H](NC(=O)c4ccccc4)c4ccccc4)C(C)=C1C3(C)C)[C@]1(OC(C)=O)CO[C@@H]1C[C@@H]2O` [Paclitaxel], the inhibition at 10 µM [1] is reported as < 50%, the IC30 (concentration producing 30% inhibition) ([1]; 24 h, read-out: Concentration producing 50% inhibition (data shown are the concentrations that produced 30% inhibition)) is reported as > 14 nM and the IC50 ([2]; Monolayers (passage 0)) is reported as 32.9 ± 3.6 nM. For the same molecule, the IC50 ([2]; Monolayers (passage 1)) was 21.8 ± 0.9 nM, the IC50 ([2]; Monolayers (passage 2)) was 15 ± 0.9 nM and the IC50 ([2]; Monolayers (passage 3)) was 11.7 ± 0.3 nM. The IC50 ([3]; r-bFGF 0 ng/ml) was 59.6 nM, the IC50 ([3]; r-bFGF 0.01 ng/ml) was 112 nM and the IC50 ([3]; r-bFGF 0.1 ng/ml) was 183 nM. It also gave an IC50 ([3]; r-bFGF 1 ng/ml) of 236 nM, an IC50 (Human breast MCF7; MCF7, r-bFGF 0 ng/ml) of 0.32 nM and an IC50 (Human breast MCF7; MCF7, r-bFGF 0.01 ng/ml) of 0.45 nM. The IC50 (Human breast MCF7; MCF7, r-bFGF 0.1 ng/ml) was 0.84 nM, the IC50 (Human breast MCF7; MCF7, r-bFGF 1 ng/ml) was 1.3 nM and the IC50 (Human colon HT-29; HT-29, 96 h, r-aFGF + r-bFGF 0 ng/ml) was 2.2 nM. It also gave an IC50 (Human colon HT-29; HT-29, 96 h, r-aFGF + r-bFGF 0.04 ± 1 ng/ml) of 2 nM, an IC50 (Human colon HT-29; HT-29, 96 h, r-aFGF + r-bFGF 0.08 ± 1 ng/ml) of 2 nM and an IC50 (Human colon HT-29; HT-29, 96 h, r-aFGF + r-bFGF 0.16 ± 1 ng/ml) of 2.1 nM. It also gave an IC50 (Human colon HT-29; HT-29, 96 h, r-aFGF + r-bFGF 0.64 ± 1 ng/ml) of 6.2 nM, an IC50 (Human colon HT-29; HT-29, r-aFGF 0 ng/ml) of 2.1 nM and an IC50 (Human colon HT-29; HT-29, r-aFGF 1 ng/ml) of 2 nM. It also gave an IC50 (Human colon HT-29; HT-29, r-aFGF 10 ng/ml) of 1.9 nM, an IC50 (Human colon HT-29; HT-29, r-aFGF 50 ng/ml) of 2 nM and an IC50 (Human colon HT-29; HT-29, r-aFGF + r-bFGF 1 ± 1 ng/ml) of 10.8 nM. For the same molecule, the IC50 (Human colon HT-29; HT-29, r-bFGF 0 ng/ml) was 2.1 nM, the IC50 (Human colon HT-29; HT-29, r-bFGF 1 ng/ml) was 2 nM and the IC50 (Human colon HT-29; HT-29, r-bFGF 10 ng/ml) was 1.9 nM. For the same molecule, the IC50 (Human colon HT-29; HT-29, r-bFGF 50 ng/ml) was 2 nM, the IC50 (Human lung A459; A459, r-bFGF 0 ng/ml) was 0.87 nM and the IC50 (Human lung A459; A459, r-bFGF 1 ng/ml) was 0.9 nM. It also gave an IC50 (Human lung A459; A459, r-bFGF 10 ng/ml) of 1.07 nM, an IC50 (Human lung A459; A459, r-bFGF 50 ng/ml) of 1.22 nM and an IC50 (Human pharynx FaDu; 96 h, r-aFGF + r-bFGF 0 ng/ml) of 0.82 nM. For the same molecule, the IC50 (Human pharynx FaDu; [5]) was 0.84 nM, the IC50 (Human pharynx FaDu; [6]) was 0.82 nM and the IC50 (Human pharynx FaDu; 96 h, r-aFGF + r-bFGF 0.16 ± 1 ng/ml) was 0.81 nM. For the same molecule, the IC50 (Human pharynx FaDu; 96 h, r-aFGF + r-bFGF 0.32 ± 1 ng/ml) was 0.84 nM, the IC50 (Human pharynx FaDu; [7]) was 2.01 nM and the IC50 (Human pharynx FaDu; [8]) was 3.5 nM. For the same molecule, the IC50 (Human pharynx FaDu; r-aFGF 0 ng/ml) was 0.82 nM, the IC50 (Human pharynx FaDu; r-aFGF 1 ng/ml) was 0.8 nM and the IC50 (Human pharynx FaDu; r-aFGF 10 ng/ml) was 0.82 nM. The IC50 (Human pharynx FaDu; r-aFGF 50 ng/ml) was 0.83 nM, the IC50 (Human pharynx FaDu; r-bFGF 0 ng/ml) was 0.77 nM and the IC50 (Human pharynx FaDu; r-bFGF 1 ng/ml) was 0.79 nM. The IC50 (Human pharynx FaDu; r-bFGF 10 ng/ml) was 0.74 nM, the IC50 (Human pharynx FaDu; r-bFGF 50 ng/ml) was 0.82 nM and the IC50 (Human prostate PC3; 96 h, r-aFGF + r-bFGF 0 ng/ml) was 1.2 nM. For the same molecule, the IC50 (Human prostate PC3; [5]) was 1.2 nM, the IC50 (Human prostate PC3; [6]) was 2.1 nM and the IC50 (Human prostate PC3; [7]) was 5.8 nM. It also gave an IC50 (Human prostate PC3; [8]) of 6.9 nM, an IC50 (Human prostate PC3; 96 h, r-aFGF + r-bFGF) of 3.1 nM and an IC50 (Human prostate PC3; r-aFGF 0 ng/ml) of 1.2 nM. It also gave an IC50 (Human prostate PC3; r-aFGF 1 ng/ml) of 1.2 nM, an IC50 (Human prostate PC3; r-aFGF 10 ng/ml) of 1.1 nM and an IC50 (Human prostate PC3; r-aFGF 50 ng/ml) of 1.2 nM. The IC50 (Human prostate PC3; r-bFGF 0 ng/ml) was 1.2 nM, the IC50 (Human prostate PC3; r-bFGF 1 ng/ml) was 1.2 nM and the IC50 (Human prostate PC3; r-bFGF 10 ng/ml) was 2.1 nM. It also gave an IC50 (Human prostate PC3; r-bFGF 50 ng/ml) of 3.3 nM, an IC50 (Rat prostate MAT-LyLu; r-bFGF 0 ng/ml) of 12.7 nM and an IC50 (Rat prostate MAT-LyLu; r-bFGF 1 ng/ml) of 16.3 nM. The IC50 (Rat prostate MAT-LyLu; r-bFGF 10 ng/ml) was 47.8 nM, the IC50 (Rat prostate MAT-LyLu; r-bFGF 50 ng/ml) was 214 nM and the “Remaining cell number at 72 hours (% of control)” value ([4]; drug concentration 2.5 NM) was 87%. For the same molecule, the “Remaining cell number at 72 hours × 10^6” value ([4]; drug concentration 2.5 NM) was 2.0 × 10^6, the “Extracellular bFGF, % of control” value ([4]; drug concentration 2.5 NM) was 347 % of control and the “Extracellular concentration bFGF” value ([4]; drug concentration 2.5 NM) was 19.5 pg/mL. The “Remaining cell number at 72 hours (% of control)” value ([4]; drug concentration 5 NM) was 43%, the “Remaining cell number at 72 hours × 10^6” value ([4]; drug concentration 5 NM) was 1.0 × 10^6 and the “Extracellular LDH, % of control” value ([4]; drug concentration 5 NM) was 437 % of control. The “Extracellular bFGF, % of control” value ([4]; drug concentration 5 NM) was 1358 % of control, the “Extracellular concentration bFGF” value ([4]; drug concentration 5 NM) was 76.3 pg/mL and the “Remaining cell number at 72 hours (% of control)” value ([4]; drug concentration 10 NM) was 22%. The “Remaining cell number at 72 hours × 10^6” value ([4]; drug concentration 10 NM) was 0.5 × 10^6, the “Extracellular LDH, % of control” value ([4]; drug concentration 10 NM) was 705 % of control and the “Extracellular bFGF, % of control” value ([4]; drug concentration 10 NM) was 2917 % of control. For the same molecule, the “Extracellular concentration bFGF” value ([4]; drug concentration 10 NM) was 164 pg/mL.
